Experimental data reported in patent publication US9439909B2, “Compositions and methods for sensitizing a neoplastic cell to radiation” (The Broad Institute, Inc., priority 2013, dated 2016).

Key:
LC-1/SQSF cells [1] = assay: Cellular viability of LC-1/SQSF cells after incubation with PI3K inhibitors; settings: LC-1/SQSF, 48 hours
Protocol: (§5) To test this, LC-1/SQSF cells were generated that stably express hNQO1-ARE-luc, containing cis-acting antioxidant response regulatory elements in the 5′-flanking region of NAD(P)H:quinone oxidoreductase (NQO1) (19), a gene induced by NRF2. Luciferase activity was measured in LC-1/SQSF, hNQO1-ARE-luc cells after incubation with LY 294002, NVP-BKM120, or TGX-221. […] Cellular viability was measured after incubation with LY 294002, NVP-BKM120, or TGX-221.

LC-1/SQSF cells [2] = system: LC-1/SQSF cells
Protocol: as §5

NRF2 protein [3] = assay: Immunoblot of NRF2 protein level in RERF-LC-AI cells; format: cell-based, human; settings: for NRF2 protein level / expression of endogenous NRF2 compared with control shNTC: RERF-LC-AI, Doxycycline induction 24 hours
Protocol: (§1) Anti-NRF2 antibody (ab31163) was from Abcam (Cambridge, Mass.) (17). NVP-BKM120 and TGX-221 was from Selleck (Houston, Tex.). LY 294002 was from Cell Signaling Technology (Beverly, Mass.).
(§2) Construction of the retroviral expression vector of short hairpin RNA (shRNA) was carried out as described (18). The shRNA-targeted sequences were as follows: NRF2-1 shRNA, […] (SEQ ID NO: 1); NRF2-2 shRNA, […] (SEQ ID NO: 2). The control vector contains nontargeting shRNA sequence. The entry vectors were recombined with pLKO-Tet-ON-puro by LR reactions (Invitrogen, Carlsbad, Calif.), in accordance with the manufacturer's instructions. After infection (multiplicity of infection >1), cells were selected and maintained in the presence of 1 μg/ml puromycin.

NRF2 protein [4] = assay: Immunoblot of NRF2 protein level in LC-1/SQSF cells; format: cell-based, human; settings: for expression of endogenous mutant NRF2 compared with control shNTC: Doxycycline induction 24 hours
Protocol: as §1, §2

LC-1/SQSF cells [5] = assay: Clonogenic survival, LC-1/SQSF cells; format: cell-based, human
Protocol: (§3) Lung SqCC cell lines from the Cancer Cell Line Encyclopedia (CCLE) were authenticated per CCLE protocol (14) and grown in recommended media supplemented with 10% fetal bovine serum (Benchmark, Calif.) and 100 U/mL Penicillin, 100 μg/mL of Streptomycin, and 292 μg/mL L-Glutamine (Corning, N.Y.). All cultures were maintained at 37° C. in a humidified 5% CO2 atmosphere and tested to ensure absence of Mycoplasma. Plates were treated with 0 Gy (no radiation) or with 1-10 Gy of γ-radiation delivered at 0.91 Gy/min with a ^137Cs source using a GammaCell 40 Exactor (Best Theratronics; Ontario, Canada).
(§4) Cells were plated at appropriate dilutions, irradiated, and incubated for 10-14 days for colony formation. For chemical radiosensitization measurements, drug was added 24 hours prior to irradiation. Colonies were fixed in a solution of acetic acid and methanol 1:3 (v/v) and stained with 0.5% (w/v) crystal violet as previously described (15). A colony was defined to consist of 50 cells or greater. Colonies were counted digitally using ImageJ software as described (16). Integration of survival as a function of dose, or area under the curve, was calculated using Prism, GraphPad Software (La Jolla, Calif.).

RERF-LC-AI cells = assay: Clonogenic survival, RERF-LC-AI cells; format: cell-based, human
Protocol: as §3, §4

A549 cells = assay: Clonogenic survival, A549 cells; format: cell-based, human; settings: A549, drug 24 hours before radiation
Protocol: as §3, §4

NRF2 activity = assay: hNQO1-ARE-luc luciferase reporter assay in LC-1/SQSF cells; format: cell-based, human; settings: 24 hours
Protocol: LC-1/SQSF, hNQO1-ARE-luc cells were produced as follows. hQR41-ARE sequence (19) and firefly luciferase-PEST sequence (Promega, WI) was cloned into plenti6/BLOCK-iT-DEST lentivirus backbone (Invitrogen, NY) at the restriction sites of NcoI and Hind III. The engineered region was sequence verified and matched 100% of the expected sequences. The plasmid was stably infected to the LC-1/SQSF cell line, selected and maintained in 5 μg/ml Blasticidin in the recommended media.

HCC15 cells = assay: Clonogenic survival, HCC15 cells; format: cell-based, human; settings: HCC15 (KEAP1 mutant), drug 24 hours before radiation
Protocol: as §3, §4

SQ-1 cells = assay: Clonogenic survival, SQ-1 cells; format: cell-based, human; settings: SQ-1 (NFE2L2 and KEAP1 wild type), drug 24 hours before radiation
Protocol: as §3, §4

[6] = Cellular viability of LC-1/SQSF cells after incubation with PI3K inhibitors; settings: human, LC-1/SQSF cells stably expressing hNQO1-ARE-luc
Protocol: as §5

Cc1cc(C(C)Nc2ccccc2)c2nc(N3CCOCC3)cc(=O)n2c1 (stereo not drawn) [TGX-221]
decrement in cellular viability (LC-1/SQSF cells [1]): mirrored the effect on NRF2 activity | viability (LC-1/SQSF cells [2]): > 90%

CC(C)(C)c1cc(O)ccc1O [tBHQ, tert-Butylhydroquinone]
NRF2 stabilization (NRF2 protein level) (NRF2 protein [3]; RERF-LC-AI cells, -/+ tBHQ): NRF2 stabilization

shNRF2-2: lentiviral-inducible NRF2-targeted shRNA, target sequence GCTCCTACTGTGATGTGAAAT (SEQ ID NO: 2) (the letters are possibly those of the target site)
expression of endogenous mutant NRF2 compared with control shNTC (NRF2 protein [4]): significantly reduced | clonogenic capacity after lentiviral-induction (LC-1/SQSF cells [5]; LC-1/SQSF, no radiation): significantly diminished clonogenic capacity | radiation sensitivity, clonogenic survival (RERF-LC-AI cells; RERF-LC-AI, 2, 4, 6 Gy after Doxycycline 24 hours): did not result in any observable decrease | clonogenic capacity (RERF-LC-AI cells; RERF-LC-AI, no radiation): did not result in any observable decrease | NRF2 protein level / expression of endogenous NRF2 compared with control shNTC (NRF2 protein [3]): significantly reduced

Nc1cc(C(F)(F)F)c(-c2cc(N3CCOCC3)nc(N3CCOCC3)n2)cn1 [NVP-BKM120, 5-(2,6-dimorpholinopyrimidin-4-yl)-4-(trifluoromethyl)pyridin-2-amine]
clonogenic survival with drug and radiation compared to control (0 Gy) (A549 cells): synergistic decrement in clonogenic survival | decrement in NRF2 protein level (NRF2 protein [4]; 24 hours): significant decrement in NRF2 protein level | clonogenic survival with drug and radiation compared to control (0 Gy) (LC-1/SQSF cells [5]; LC-1/SQSF (NFE2L2 mutant), drug 24 hours before radiation): synergistic decrement in clonogenic survival | synergy between drug and radiation, clonogenic survival (RERF-LC-AI cells; RERF-LC-AI (NFE2L2 and KEAP1 wild type), drug 24 hours before radiation): significantly less synergy | decrement in NRF2 activity (luciferase activity) (NRF2 activity): significant decrement in NRF2 activity | clonogenic survival with drug and radiation compared to control (0 Gy) (HCC15 cells): synergistic decrement in clonogenic survival | synergy between drug and radiation, clonogenic survival (SQ-1 cells): significantly less synergy | viability at 24 h [6]: > 90% | decrement in cellular viability (LC-1/SQSF cells [1]): mirrored the effect on NRF2 activity

O=c1cc(N2CCOCC2)oc2c(-c3ccccc3)cccc12 [LY 294002]
viability at 24 h [6]: > 90%

shNRF2-1: lentiviral-inducible NRF2-targeted shRNA, target sequence AGAGCAAGATTTAGATCATTT (SEQ ID NO: 1) (the letters are possibly those of the target site)
expression of endogenous mutant NRF2 compared with control shNTC (NRF2 protein [4]): significantly reduced | sensitivity to radiation versus control shNTC cells, clonogenic survival (LC-1/SQSF cells [5]; LC-1/SQSF, 2, 4, 6 Gy after Doxycycline 24 hours): more sensitive to radiation | NRF2 protein level / expression of endogenous NRF2 compared with control shNTC (NRF2 protein [3]): minimal affect
